Measurements from patent publication US12552753B2, “Methods and compositions for targeting Tregs using CCR8 inhibitors” (Nanjing Immunophage Biomedical Co., Ltd., priority 2020, dated 2026).
Counter-ions that a name gives are not always drawn.

What follows are compounds tested against CCR8 (Homo sapiens, UniProt P51685) (assay: Tango assay (Tango-CCR8-Gal4-CHO-K1 cells, CCL1-stimulated, ONE-Glo luminescence)). Details: Tango Assay IC50, Inhibition of CCR8 Tango cell in vitro.
Chain of CCR8 (P51685 whole entry, the tested form may be a part): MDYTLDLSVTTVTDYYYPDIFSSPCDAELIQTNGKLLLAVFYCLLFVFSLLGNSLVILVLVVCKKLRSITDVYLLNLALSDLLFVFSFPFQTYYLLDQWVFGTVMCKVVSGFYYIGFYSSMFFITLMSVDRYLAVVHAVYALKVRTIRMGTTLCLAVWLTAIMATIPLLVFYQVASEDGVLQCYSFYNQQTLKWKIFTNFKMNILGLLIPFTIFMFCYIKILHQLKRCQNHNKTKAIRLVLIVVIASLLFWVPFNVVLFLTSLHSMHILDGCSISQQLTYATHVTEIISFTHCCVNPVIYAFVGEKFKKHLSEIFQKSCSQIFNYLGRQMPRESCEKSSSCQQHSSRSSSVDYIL
Method: The Tango cell line was used to monitor antagonists-mediated receptor inactivation.
Tango cells (Tango-CCR8-Gal4-CHO-K1 cells constructed by Genomeditech) were passaged in complete medium (F12K, 10% FBS, 1% penicillin-streptomycin, 4 μg/ml puromycin, 4 μg/ml blasticidin and 100 μg/ml hygromycin) in incubator (37° C., 5% CO2).
Twenty-four hours before the seed, cells were cultured in 10 or 15 cm dish at a density of 30% confluence in culture medium (F12K, 10% FBS, 1% penicillin-streptomycin).
Cells were suspended in starving medium (F12K, 1% FBS, 1% penicillin-streptomycin) before being seeded into black/clear 96 wells (1×10^4 cells/70 μl/well) and incubated for 6 hours (37° C., 5% CO2). Different concentration of compound, dissolved in DMSO, was into the 96-well plates, with 50 μl in each well, and incubation continued for 1 hour at 37° C.
After the incubation, the medium was removed and the 96-well plate was put in −80° C. freezer for an hour or longer. The plate and the ONE-Glo reagent (Promega, Catalog Number: E6110) which was frozen in −80° C., were taken out and rewarmed to room temperature. The ONE-Glo working reagent was prepared by mixing ONE-Glo reagent with F12K (no FBS) (1:2), and 40 μl ONE-Glo working reagent was added into each well. After incubating for 10 minutes at room temperature, the plate was read using microplate luminescence reader at 560 nm.
The microplate reader records luminescence in relative luminescence units (RLU).
Compound `Cc1cc(S(=O)(=O)N[C@H](C)C2CCNCC2)ccc1NC(=O)c1cccs1` [Compound 210A, (R)-N-(2-methyl-4-(N-(1-(piperidin-4-yl)ethyl)sulfamoyl)phenyl)thiophene-2-carboxamide hydrochloride] has an IC50 of 161 nM. With `Cc1cc(S(=O)(=O)NC(C(C)C)C2CCNCC2)ccc1NC(=O)c1ccccc1C` (stereo not shown) [Compound 224A, 2-methyl-N-(2-methyl-4-(N-(2-methyl-1-(piperidin-4-yl)propyl)sulfamoyl)phenyl)benzamide hydrochloride] the IC50 was 494 nM. `Cc1ccccc1C(=O)Nc1ccc(S(=O)(=O)NC(C)C2CCCCC2)c2ccccc12` (stereo not shown) [Compound 57, N-(4-(N-(1-cyclohexylethyl)sulfamo-yl)naphthalen-1-yl)-2-methylbenzamide] showed an IC50 of 3 nM. `CCCN1CCN(c2ccc(C)c(NS(=O)(=O)c3ccc(NC(=O)c4ccccc4C)c4ccccc34)c2)CC1` [Compound 93, 2-methyl-N-(4-(N-(2-methyl-5-(4-propylpiperazin-1-yl)phenyl)sulfamoyl)naphthalen-1-yl)benzamide] was tested, and the IC50 was > 10000 nM. In the case of `CC(NS(=O)(=O)c1ccc2cnccc2c1)C1CC2CCC1CC2` (stereo not shown) [Compound 139, N-(1-(bicyclo[2.2.2]octan-2-yl)ethyl)isoquinoline-6-sulfonamide], the IC50 is reported as > 10000 nM. Compound `Cc1ccccc1C(=O)Nc1c(F)cc(S(=O)(=O)N[C@H](C)C2CCNCC2)cc1Cl` [Compound 304, (R)-N-(2-chloro-6-fluoro-4-(N-(1-(piperidin-4-yl)ethyl)sulfamoyl)phenyl)-2-methylbenzamide hydrochloride] has an IC50 of 3 nM. Compound `Cc1cc(S(=O)(=O)N[C@H](C)C2CCN(C)CC2)ccc1NC(=O)c1c(C)cccc1F` [Compound 270, (R)-2-fluoro-6-methyl-N-(2-methyl-4-(N-(1-(1-methylpiperidin-4-yl)ethyl)sulfamoyl)phenyl) benzamide] has an IC50 of 50 nM. For `Cc1ccccc1C(=O)Nc1cc(F)c(S(=O)(=O)NC(C)C2CCN(C)CC2)cc1Cl` (stereo not shown) [Compound 263C, N-(2-chloro-5-fluoro-4-(N-(1-(1-methylpiperidin-4-yl)ethyl)sulfamoyl)phenyl)-2-methylbenzamide], the IC50 was 15 nM. Compound `Cc1cc(S(=O)(=O)N[C@H](C)C2CCN(C)CC2)ccc1NC(=O)C12CCC(CC1)CC2` [Compound 295, (R)-N-(2-methyl-4-(N-(1-(1-methylpiperidin-4-yl)ethyl)sulfamoyl)phenyl)bicyclo [2.2.2]oct-ane-1-carboxamide] has an IC50 of 4.6 nM. Compound `Cc1cc(S(=O)(=O)N[C@H](C)C2CCN(C(C)C)CC2)ccc1NC(=O)c1ccccc1C` [Compound 200, (R)-N-(4-(N-(1-(1-isopropylpiperidin-4-yl)ethyl)sulfamoyl)-2-methylphenyl)-2-methylbenzamide] has an IC50 of 15 nM. `Cc1cc(S(=O)(=O)NC(C)C2CC3CCC2CC3)ccc1NC(=O)c1ccccc1C` (stereo not shown) [Compound 162, N-(4-(N-(1-(bicyclo[2.2.2]octan-2-yl)ethyl)sulfamoyl)-2-methylphenyl)-2-methylbenzamide] showed an IC50 of 5 nM. In the case of `Cc1cc(S(=O)(=O)N[C@H](C)C2CCN(C)CC2)ccc1NC(=O)c1cc(Cl)ccc1C` [Compound 272, (R)-5-chloro-2-methyl-N-(2-methyl-4-(N-(1-(1-methylpiperidin-4-yl)ethyl)sulfamoyl)phenyl) benzamide], the IC50 is reported as 1 nM. For `COC(=O)CN1CCCCC1C(C)NS(=O)(=O)c1ccc(NC(=O)c2ccccc2C)c2ccccc12` (single isomer, unassigned) [Compound 70B, methyl 2-(2-(1-(4-(2-methylbenzamido)naph-thalene-1-sulfonamido)ethyl)piper-idin-1-yl)acetate], the IC50 was > 10000 nM. With `Cc1cc(S(=O)(=O)N[C@@H](C)C2CCN(C)CC2)c(F)cc1NC(=O)c1ccccc1C` [Compound 262A, (S)-N-(5-fluoro-2-methyl-4-(N-(1-(1-methylpiperidin-4-yl)ethyl)sulfamoyl)phenyl)-2-methylbenzamide] the IC50 was > 100000 nM. `Cc1ccccc1C(=O)Nc1ccc(S(=O)(=O)NC(C)C2CCCN(C(=O)[C@H](C)N)C2)c2ccccc12` (single isomer, unassigned) [Compound 158D] was tested, and the IC50 was 1020 nM. Work on `Cc1ccccc1C(=O)Nc1ccc(S(=O)(=O)NC(C)C2CCN(C(=O)OC(C)(C)C)C2)c2ccccc12` (stereo not shown) [Compound 65, tert-butyl 3-(1-(4-(2-methylbenzamido)naph-thalene-1-sulfonamido)ethyl)pyr-rolidine-1-carboxylate] yielded an IC50 of 1100 nM. `Cc1ccccc1C(=O)Nc1ccc(S(=O)(=O)NC(C)C2CCN(C(=O)OC(C)(C)C)CC2)c2ccccc12` (stereo not shown) [Compound 60, tert-butyl 4-(1-(4-(2-methylbenzamido)naph-thalene-1-sulfonamido)ethyl)piper-idine-1-carboxylate] was tested, and the IC50 was 160 nM. With `CC(=O)N1CC(C)(C)c2ccc(NS(=O)(=O)c3ccc(NC(=O)c4ccccc4C)c4ccccc34)cc21` [Compound 40, N-(4-(N-(1-acetyl-3,3-dimethylindolin-6-yl)sulfamoyl)naphthalen-1-yl)-2-methylbenzamide] the IC50 was > 10000 nM. `COc1ccc(C(=O)Nc2ccc(S(=O)(=O)N[C@H](C)C3CCN(C)CC3)cc2C)c(C)c1` [Compound 266, (R)-4-methoxy-2-methyl-N-(2-methyl-4-(N-(1-(1-methylpiperidin-4-yl)ethyl)sulfamoyl)phenyl) benzamide] showed an IC50 of 3 nM. `CCCN1CCCN(c2cc(NS(=O)(=O)c3ccc(NC(=O)c4ccccc4C)c4ccccc34)ccc2OC)CC1` [Compound 4, N-(4-(N-(4-methoxy-3-(4-propyl-1,4-diazepan-1-yl)phenyl)sulfamoyl)naphthalen-1-yl)-2-methylbenzamide] showed an IC50 of 1170 nM. In the case of `Cc1cc(S(=O)(=O)N[C@H](C)C2CCN(C)CC2)ccc1NC(=O)c1ccc(Cl)cc1C` [Compound 273A, (R)-4-chloro-2-methyl-N-(2-methyl-4-(N-(1-(1-methylpiperidin-4-yl)ethyl)sulfamoyl)phenyl) benzamide hydrochloride], the IC50 is reported as 1 nM. For `Cc1ccccc1C(=O)Nc1ccc(S(=O)(=O)Nc2ccc3c(c2)C(N(C)CCN(C)C)CCC3)c2ccccc12` (stereo not shown) [Compound 99, N-(4-(N-(8-((2-(dimethylamino)ethyl)(methyl)amino)-5,6,7,8-tetrahydronaphthalen-2-yl)sulfamoyl)naphthalen-1-yl)-2-methylbenzamide], the IC50 was > 10000 nM. For `Cc1ccccc1C(=O)Nc1ccc(S(=O)(=O)NC2CCOc3ccccc32)c2ccccc12` (stereo not shown) [Compound 29, N-(4-(N-(chroman-4-yl)sulfamoyl)naphthalen-1-yl)-2-methylbenzamide], the IC50 was 26 nM. In the case of `Cc1cc(S(=O)(=O)N[C@H](C)C2CCN(C)CC2)ccc1NC1(c2ccccc2)COC1` [Compound 299, (R)-3-methyl-N-(1-(1-methylpiperidin-4-yl)ethyl)-4-((3-phenyloxetan-3-yl)amino) benzene-sulfonamide], the IC50 is reported as > 100000 nM. `Cc1cc(S(=O)(=O)N[C@H](C)C2CCNCC2)ccc1NC(=O)c1ccccc1C` [Compound 161A, (R)-2-methyl-N-(2-methyl-4-(N-(1-(piperidin-4-yl)ethyl)sulfamoyl)phen-yl)benzamide hydrochloride] gave an IC50 of 42 nM. In the case of `Cc1ccccc1C(=O)Nc1cc(Cl)c(S(=O)(=O)N[C@H](C)C2CCNCC2)cc1Cl` [Compound 243A, (R)-N-(2,5-dichloro-4-(N-(1-(piperidin-4-yl)ethyl)sulfamoyl)phen-yl)-2-methylbenzamide hydrochloride], the IC50 is reported as 12 nM. Compound `Cc1ccccc1C(=O)Nc1ccc(S(=O)(=O)NC(C)C2CC3CCC2CC3)c(C)c1C` (stereo not shown) [Compound 182, N-(4-(N-(1-(bicyclo[2.2.2]octan-2-yl)ethyl)sulfamoyl)-2,3-dimethylphenyl)-2-methylbenzamide] has an IC50 of 61 nM. With `CC(NS(=O)(=O)c1ccc(-c2nn[nH]n2)c2ccccc12)C1CCCCC1` (stereo not shown) [Compound 150, N-(1-cyclohexylethyl)-4-(2H-tetrazol-5-yl)naphthalene-1-sulfonamide] the IC50 was > 10000 nM. `CCCC(=O)N1CCC(CNS(=O)(=O)c2ccc(NC(=O)c3ccccc3C)c3ccccc23)C1` (stereo not shown) [Compound 15, N-(4-(N-((1-butyrylpyrrolidin-3-yl)methyl)sulfamoyl)naphthalen-1-yl)-2-methylbenzamide] was tested, and the IC50 was > 10000 nM. Compound `Cc1ccccc1C(=O)Nc1ccc(S(=O)(=O)NC(C)c2nccs2)c2ccccc12` (stereo not shown) [Compound 56, 2-methyl-N-(4-(N-(1-(thiazol-2-yl)ethyl)sulfamoyl)naph-thalen-1-yl)benzamide] has an IC50 of 2790 nM. Compound `Cc1ccccc1C(=O)Nc1ccc(S(=O)(=O)NC(C)C2CCCN(C(=O)[C@H](C)N)C2)c2ccccc12` (single isomer, unassigned) [Compound 158A] has an IC50 of 1500 nM. Compound `Cc1cc(S(=O)(=O)N[C@H](C)C2CC[N+](C)(C)CC2)ccc1NC(=O)c1ccccc1C` [Compound 301, (R)-1,1-dimethyl-4-(1-((3-methyl-4-(2-methylbenzamido)phenyl)sulfonamido)ethyl)piperidin-1-ium.chloride.] has an IC50 of 102 nM. `CC(=O)Nc1ccccc1COc1ccc(S(=O)(=O)NC(C)C2CCCCC2)c2ccccc12` (stereo not shown) [Compound 151, N-(2-(((4-(N-(1-cyclohexylethyl)sulfamoyl)naphthalen-1-yl)oxy)methyl)phenyl)acetamide] gave an IC50 of 1360 nM. With `Cc1ccccc1C(=O)Nc1ccc(S(=O)(=O)Nc2ccc3c(c2)CN(C(=O)CN(C)C)CC3)c2ccccc12` [Compound 41, N-(4-(N-(2-(2-(dimethylamino)acetyl)-1,2,3,4-tetrahydroisoquinolin-7-yl)sulfamoyl)naphthalen-1-yl)-2-methylbenzamide] the IC50 was > 10000 nM. `CCCN1CCN(c2ccc(F)c(NS(=O)(=O)c3ccc(NC(=O)c4ccccc4C)c4ccccc34)c2)CC1` [Compound 95, N-(4-(N-(2-fluoro-5-(4-propylpiperazin-1-yl)phenyl)sulfamoyl)naphthalen-1-yl)-2-methylbenzamide] was tested, and the IC50 was > 10000 nM. `Cc1cc(S(=O)(=O)N[C@H](C)C2CCNCC2)cc(C)c1NC(=O)c1ccccc1` [Compound 181, (R)-N-(2,6-dimethyl-4-(N-(1-(piperidin-4-yl)ethyl)sulfa-moyl)phenyl)benza-mide hydrochloride] was tested, and the IC50 was > 10000 nM. `Cc1ccccc1C(=O)Nc1ccc(S(=O)(=O)N[C@H](C)C2CCN(C)CC2)cc1C#N` [Compound 221, (R)-N-(2-cyano-4-(N-(1-(1-methylpiperidin-4-yl)ethyl)sulfamoyl)phenyl)-2-methylbenzamide] gave an IC50 of 24 nM.
